In patent publication US7507739B2, “6-[(substituted)phenyl]triazolopyrimidines as anticancer agents” (Wyeth, priority 2003, dated 2009):

How the values were obtained:
MAP-rich tubulin = assay: Tubulin polymerization test with MAP-rich tubulin; type: biochemical, bovine; conditions: 0.3 μM compound, 20 min, fold enhancement over control
Protocol: Medium is RPMI-1640 with L-glutamine, supplemented with 10% heat-inactivated fetal calf serum, 100 units/ml penicillin, and 100 μg/ml streptomycin (Gibco, Grand Island, N.Y.). Microtubule-associated protein (MAP)-rich tubulin, containing about 70% tubulin and 30% MAPs (#ML113), and highly purified tubulin (>99% pure, #TL238), both from bovine brain, are obtained from Cytoskeleton, Inc., Denver, Colo. PEM buffer (80 mM piperazine-N,N′-bis[2-ethanesulfonic acid], pH 6.9, 1 mM ethylene glycol-bis(β-aminoethyl ether)-N,N,N′,N′-tetraacetic acid, 1 mM magnesium chloride) and guanosine 5′-triphosphate (GTP) are also obtained from Cytoskeleton. [3H]paclitaxel, specific activity 14.7 Ci/mmol, is purchased from Moravek Biochemicals (Brea, Calif.). [^3H]vinblastine, specific activity 9.60 Ci/mmol and MicroSpin G-50 columns are obtained from Amersham Biosciences (Piscataway, N.J.). […] Other reagents are obtained from Sigma (St. Louis, Mo.).
Two variations of this procedure are done, one using MAP-rich tubulin and one using pure tubulin.
MAP-rich tubulin is dissolved in ice-cold PEM buffer containing 1 mM GTP (GPEM buffer) at a concentration of 1.3 mg/mL. The solution is centrifuged at top speed in an Eppendorf model 5415C microcentrifuge (Brinkmann Instruments, Westbury, N.Y.) for 10 min at […] immediately before use. The tubulin solution is added to wells of a ½-area 96-well plate (Costar No. 3696, Corning, Inc., Corning, N.Y.) already containing the compounds of interest. Each compound is tested in duplicate at a final concentration of 0.3 μM in a volume of 110 μL per well. The final DMSO concentration in all wells is 0.3%. Control reactions, which received compound solvent only, are done in quadruplicate. The plate is put in a SpectraMax Plus plate reader (Molecular Devices Corp. Sunnyvale, Calif.) thermostated at 24° and the absorbance of each well at 340 nm, a measure of the appearance of turbidity due to tubulin polymer formation, is determined every minute for 60 minutes. The absorbance at time 0 for each well is subtracted from each of the subsequent absorbance readings for that well, and then the duplicates are averaged.
In this assay, control reactions with MAP-rich tubulin show an S-shaped absorbance profile characterized by three phases: first, a lag phase during which no change in absorbance occurs; second, a polymerization phase in which absorbance increases; and third, a plateau phase in which absorbance has reached a maximum and little or no further change occurs. Polymerization enhancers such as paclitaxel and docetaxel shorten or eliminate the lag phase, increase the rate of the polymerization phase, and often increase the height of the plateau. […] The compounds of this invention have a taxane-like effect on the polymerization reaction. This has been expressed quantitatively in Table 5 by dividing the mean A340 of each sample at 20 min by the mean A340 of the control at 20 min to give a fold enhancement over control. […] Examples of this invention have factors ranging up to 8.1, with the majority in the 5 to 6-fold range.

COLO 205 cells = assay: MTS cytotoxicity test with COLO 205 cells; type: cell-based, human; conditions: Homo sapiens, COLO 205, 72 h, 3 days
Protocol: The assay, which is sold in kit form by Promega (Madison, Wis.; CellTiter 96 AQueous Non-Radioactive Cell Proliferation Assay), is based on the conversion by viable cells, but not by dead cells, of the tetrazolium salt, MTS (3-(4,5-dimethylthiazol-2-yl)-5-(3-carboxymethoxyphenyl)-2-(4-sulphophenyl)-2H-tetrazolium, inner salt), into a water-soluble colored formazan which is detected by spectrophotometry. Compounds are tested at nine concentrations, in order to determine IC50 values. For the test procedure, cells are harvested by trypsinization (or, in the case of non-adherent cells, by simple resuspension), washed, counted and distributed to wells of 96-well flat-bottom microtiter plates at 1000 cells per well in 200 μL of medium. In addition, one row of wells on a separate plate received cells as above (“time 0” plate). All plates are incubated at 37° in humidified 5% CO2 in air for about 24 hr.
On day 2, compounds for test are diluted and added to wells. Compounds are dissolved in DMSO at 10 mg/mL. For each compound, nine serial 2-fold dilutions are prepared in DMSO. Ten μL of each dilution in DMSO is transferred to 100 μL of medium, mixed well, and then 5 μL of this dilution is transferred in quadruplicate to wells containing cells. The final high concentration of each compound is typically 5 μM. Plates are returned to the incubator for three days. At the time of drug addition to the experimental plates, the MTS assay is run on the “time 0” plate. This produced the “time 0 MTS value” which is related to the number of viable cells per well at the time of drug addition.
After three days of culture with test compounds (day 5 overall), the MTS assay is done on all wells of the experimental plates. The absorbance values of the quadruplicate sample wells are averaged and divided by the average of the “time 0” values. The average of control wells without drug, divided by the average “time 0” value, gave the maximal relative increase in MTS color yield due to cell growth during the final three days of culture. The average of control wells with high drug concentration, divided by the “time 0” value, gave the minimal relative color yield for cells that are completely killed. The nine values for each compound are plotted against concentration, and the concentration that produced a relative color yield half way between the maximum and minimum is taken as the IC50 value.
COLO 205 is a human colon carcinoma cell line that is used for comparative testing of the examples of this invention and several reference compounds. This line is sensitive to paclitaxel and vincristine.

Row | Compound | A340 Compound/A340 Control (MAP-rich tubulin) | IC50 (COLO 205 cells)
1 | CNCCCOc1cc(F)c(-c2c(Cl)nc3ncnn3c2NCC(F)(F)F)c(F)c1 [Example 3, 5-Chloro-6-{2,6-difluoro-4-[3-(methylamino)propoxy]phenyl}-N-(2,2,2-trifluoroethyl)[1,2,4]triazolo[1,5-a]pyrimidin-7-amine] | 6.7 | 25 nM
2 | C[C@H](Nc1c(-c2c(F)cc(OCCCN3CCN(C)CC3)cc2F)c(Cl)nc2ncnn12)C(F)(F)F [Example 6, 5-Chloro-6-{2,6-difluoro-4-[3-(4-methylpiperazin-1-yl)propoxy]phenyl}-N-[(1S)-2,2,2-trifluoro-1-methylethyl][1,2,4]triazolo[1,5-a]pyrimidin-7-amine] | 6.7 | 155 nM
3 | CCNCCCOc1cc(F)c(-c2c(Cl)nc3ncnn3c2N[C@@H](C)C(F)(F)F)c(F)c1 [Example 7, 5-Chloro-6-{4-[3-(ethylamino)propoxy]-2,6-difluorophenyl}-N-[(1S)-2,2,2-trifluoro-1-methylethyl][1,2,4]triazolo[1,5-a]pyrimidin-7-amine] | 6.4 | 29 nM
4 | CCN(C)CCCOc1cc(F)c(-c2c(Cl)nc3ncnn3c2N[C@@H](C)C(F)(F)F)c(F)c1 [Example 8, 5-Chloro-6-(4-{3-[ethyl(methyl)amino]propoxy}-2,6-difluorophenyl)-N-[(1S)-2,2,2-trifluoro-1-methylethyl][1,2,4]triazolo[1,5-a]pyrimidin-7-amine] | 6.2 | 48 nM
5 | C[C@H](Nc1c(-c2c(F)cc(OCCCN3CCCCC3)cc2F)c(Cl)nc2ncnn12)C(F)(F)F [Example 10, 5-Chloro-6-[2,6-difluoro-4-(3-piperidin-1-ylpropoxy)phenyl]-N-[(1S)-2,2,2-trifluoro-1-methylethyl][1,2,4]triazolo[1,5-a]pyrimidin-7-amine] | 6.3 | 113 nM
6 | C[C@H](Nc1c(-c2c(F)cc(OCCCN3CCC3)cc2F)c(Cl)nc2ncnn12)C(F)(F)F [Example 12, 6-[4-(3-Azetidin-1-ylpropoxy)-2,6-difluorophenyl]-5-chloro-N-[(1S)-2,2,2-trifluoro-1-methylethyl][1,2,4]triazolo[1,5-a]pyrimidin-7-amine] | 2.9 | 326 nM
7 | C[C@H](Nc1c(-c2ccc(OCCCN(C)C)cc2F)c(Cl)nc2ncnn12)C(F)(F)F [Example 13, 5-Chloro-6-{4-[3-(dimethylamino)propoxy]-2-fluorophenyl}-N-[(1S)-2,2,2-trifluoro-1-methylethyl][1,2,4]triazolo[1,5-a]pyrimidin-7-amine] | 5.4 | 262 nM
8 | CNCCOc1cc(F)c(-c2c(Cl)nc3ncnn3c2N[C@@H](C)C(F)(F)F)c(F)c1 [Example 14, 5-Chloro-6-{2,6-difluoro-4-[2-(methylamino)ethoxy]phenyl}-N-[(1S)-2,2,2-trifluoro-1-methylethyl][1,2,4]triazolo[1,5-a]pyrimidin-7-amine] | 1.5 | 881 nM
9 | C[C@H](Nc1c(-c2c(F)cc(OCCCCN(C)C)cc2F)c(Cl)nc2ncnn12)C(F)(F)F [Example 15, 5-Chloro-6-{4-[4-(dimethylamino)butoxy]-2,6-difluorophenyl}-N-[(1S)-2,2,2-trifluoro-1-methylethyl][1,2,4]triazolo[1,5-a]pyrimidin-7-amine] | 5.5 | 276 nM
10 | C[C@H](Nc1c(-c2c(F)cc(OCCN(C)C)cc2F)c(Cl)nc2ncnn12)C(F)(F)F [Example 16, 5-Chloro-6-{4-[2-(dimethylamino)ethoxy]-2,6-difluorophenyl}-N-[(1S)-2,2,2-trifluoro-1-methylethyl][1,2,4]triazolo[1,5-a]pyrimidin-7-amine] | 2.4 | 581 nM
11 | C[C@H](Nc1c(-c2c(F)cc(OCCN3CCOCC3)cc2F)c(Cl)nc2ncnn12)C(F)(F)F [Example 17, 5-Chloro-6-[2,6-difluoro-4-(2-morpholin-4-ylethoxy)phenyl]-N-[(1S)-2,2,2-trifluoro-1-methylethyl][1,2,4]triazolo[1,5-a]pyrimidin-7-amine] | 4.8 | 245 nM
12 | C[C@H](Nc1c(-c2c(F)cc(SCCCN(C)C)cc2F)c(Cl)nc2ncnn12)C(F)(F)F [Example 18, 5-Chloro-6-(4-{[3-(dimethylamino)propyl]thio}-2,6-difluorophenyl)-N-[(1S)-2,2,2-trifluoro-1-methylethyl][1,2,4]triazolo[1,5-a]pyrimidin-7-amine] | 5.8 | 192 nM
13 | C[C@H](Nc1c(-c2c(F)cc(N(C)CCCN(C)C)cc2F)c(Cl)nc2ncnn12)C(F)(F)F [Example 22, N^1-[4-(5-Chloro-7-{[(1S)-2,2,2-trifluoro-1-methylethyl]amino}[1,2,4]triazolo[1,5-a]pyrimidin-6-yl)-3,5-difluorophenyl]-N′,N^3,N^3-trimethylpropane-1,3-diamine] | 1.2 | 1670 nM
14 | C[C@H](Nc1c(-c2c(F)cc(NCCCN(C)C)cc2F)c(Cl)nc2ncnn12)C(F)(F)F [Example 23, N^1-[4-(5-Chloro-7-{[(1S)-2,2,2-trifluoro-1-methylethyl]amino}[1,2,4]triazolo[1,5-a]pyrimidin-6-yl)-3,5-difluorophenyl]-N^3,N^3-dimethylpropane-1,3-diamine] | 4.2 | 719 nM
15 | C[C@H](Nc1c(-c2c(F)cc(NCCN(C)C)cc2F)c(Cl)nc2ncnn12)C(F)(F)F [Example 24, N^1-[4-(5-Chloro-7-{[(1S)-2,2,2-trifluoro-1-methylethyl]amino}[1,2,4]triazolo[1,5-a]pyrimidin-6-yl)-3,5-difluorophenyl]-N^2,N^2-dimethylethane-1,2-diamine] | 1.2 | 1730 nM
16 | C[C@H](Nc1c(-c2c(F)cc(CCCCN(C)C)cc2F)c(Cl)nc2ncnn12)C(F)(F)F [Example 26, 5-Chloro-6-{4-[4-(dimethylamino)butyl]-2,6-difluorophenyl}-N-[(1S)-2,2,2-trifluoro-1-methylethyl][1,2,4]triazolo[1,5-a]pyrimidin-7-amine] | 4.6 | 665 nM
